Drawing on US20110060053A1, “Crystalline Modifications of 6-Dimethylaminomethyl-1-(3-methoxyphenyl)-cyclohexane-1,3-diol” (Gruenenthal GmbH, priority 2002, published 2011), this text covers thermodynamic stability for one compound.

This data set in a line: thermodynamic stability of the crystalline modifications. In kind it is physicochemical. To be noted: in particular in the temperature range of −20° C. to 120° C.

On to `COc1cccc([C@@]2(O)C[C@H](O)CC[C@@H]2CN(C)C)c1` (racemic) [Crystalline modification A, (1RS,3RS,6RS)-6-dimethylaminomethyl-1-(3-methoxyphenyl)-cyclohexan-1,3-diol], for which the thermodynamic stability entry was “most thermodynamically stable form”.
